Molecular target: T1, human M2 receptor (Homo sapiens, UniProt P08172)
T1 construct: expressed in transfected cells; host or cells: CHO-DUKX (CHO-DUKX-M2-GIRK)
T1 sequence (P08172 1-466): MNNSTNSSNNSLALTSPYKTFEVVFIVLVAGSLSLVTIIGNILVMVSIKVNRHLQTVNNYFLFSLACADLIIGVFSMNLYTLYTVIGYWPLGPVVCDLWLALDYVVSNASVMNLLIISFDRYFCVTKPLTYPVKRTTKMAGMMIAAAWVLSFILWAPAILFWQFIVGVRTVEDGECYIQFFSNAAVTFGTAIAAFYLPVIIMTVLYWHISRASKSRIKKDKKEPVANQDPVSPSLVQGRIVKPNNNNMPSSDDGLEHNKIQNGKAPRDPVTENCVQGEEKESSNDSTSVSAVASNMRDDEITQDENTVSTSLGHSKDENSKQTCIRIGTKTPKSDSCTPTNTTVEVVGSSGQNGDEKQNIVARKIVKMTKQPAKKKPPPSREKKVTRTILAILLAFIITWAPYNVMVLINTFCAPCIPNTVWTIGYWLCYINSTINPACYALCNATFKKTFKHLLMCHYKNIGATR
Assay: Functional M2-GIRK1/4 activation test: allosteric potency (EC50) and efficiency at EC20 acetylcholine
Type: cell-based
Conditions: CHO-DUKX-M2-GIRK cells; for EC50: voltage-sensitive dye, acetylcholine at EC20, in some cases mean of two or more determinations
How it was run: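 CHO-DUKX cells stably expressing human M2 and GIRK1/4; membrane potential tracked with voltage-sensitive dye at room temperature. Compound added 50 s before acetylcholine at its EC20, then hyperpolarization read 60 s. EC50 (allosteric potency) and efficiency (boost of EC20 ACh effect) from 4-parameter Hill fit.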

[1] = boosting of the acetylcholine effect at EC20 acetylcholine concentration

Row | Compound | EC50 | Emax [1] | Efficiency [1]
1 | CC(C)C(NC(=O)c1cn(-c2c(F)cc(F)cc2Cl)c2nc(N3C[C@@H](O)[C@H](O)C3)c(F)cc2c1=O)C(F)(F)F (stereo partly drawn) [Example 136, 1-(2-Chloro-4,6-difluorophenyl)-7-[(3R,4R)-3,4-dihydroxypyrrolidin-1-yl]-6-fluoro-4-oxo-N-[1,1,1-trifluoro-3-methylbutan-2-yl]-1,4-dihydro-1,8-naphthyridine-3-carboxamide] | 0.0028 µM | 84% | –
2 | CCC(C)(C)NC(=O)c1cn(-c2c(F)cc(F)cc2F)c2nc(N3C[C@@H](O)[C@@H](O)C3)c(F)cc2c1=O [Example 79, 7-[(3R,4S)-3,4-Dihydroxypyrrolidin-1-yl]-6-fluoro-N-(2-methylbutan-2-yl)-4-oxo-1-(2,4,6-tri-fluorophenyl)-1,4-dihydro-1,8-naphthyridine-3-carboxamide] | 0.0093 µM | 99% | –
3 | Cc1cc(F)cc(C)c1-n1cc(C(=O)N[C@@H](C2CC2)C(F)(F)F)c(=O)c2cc(F)c(N3C[C@@H](O)[C@H](O)C3)nc21 [Example 175, N-[(1S)-1-Cyclopropyl-2,2,2-trifluoroethyl]-7-[(3R,4R)-3,4-dihydroxypyrrolidin-1-yl]-6-fluoro-1-(4-fluoro-2,6-dimethylphenyl)-4-oxo-1,4-dihydro-1,8-naphthyridine-3-carboxamide] | 0.073 µM | 83% | –
4 | CCC(NC(=O)c1cn(-c2c(F)cc(F)cc2F)c2nc(N3CC[C@H](O)C3)c(F)cc2c1=O)C(C)C (mixture of isomers) [Example 116, 6-Fluoro-7-[(3S)-3-hydroxypyrrolidin-1-yl]-N-[2-methylpentan-3-yl]-4-oxo-1-(2,4,6-trifluoro-phenyl)-1,4-dihydro-1,8-naphthyridine-3-carboxamide] | 0.0035 µM | 97% | –
5 | O=C(N[C@@H](C1CC1)C(F)(F)F)c1cn(-c2c(F)cc(F)cc2F)c2nc(N3C[C@@H](O)[C@@H](O)C3)c(F)cc2c1=O [Example 101, N-[(1S)-1-Cyclopropyl-2,2,2-trifluoroethyl]-7-[(3R,4S)-3,4-dihydroxypyrrolidin-1-yl]-6-fluoro-4-oxo-1-(2,4,6-trifluorophenyl)-1,4-dihydro-1,8-naphthyridine-3-carboxamide] | 0.0135 µM | 100% | –
6 | O=C(NC(C(F)(F)F)C(F)(F)F)c1cn(-c2c(F)cc(F)cc2F)c2nc(N3CC4(COC4)C3)c(F)cc2c1=O [Example 196, 6-Fluoro-N-(1,1,1,3,3,3-hexafluoropropan-2-yl)-7-(2-oxa-6-azaspiro[3.3]hept-6-yl)-4-oxo-1-(2,4,6-trifluorophenyl)-1,4-dihydro-1,8-naphthyridine-3-carboxamide] | 0.063 µM | 100% | –
7 | O=C(N[C@@H](C1CC1)C(F)(F)F)c1cn(-c2ncc(F)cc2F)c2nc(N3CC[C@H](O)C3)c(F)cc2c1=O [Example 153, N-[(1S)-1-Cyclopropyl-2,2,2-trifluoroethyl]-1-(3,5-difluoropyridin-2-yl)-6-fluoro-7-[(3S)-3-hydroxypyrrolidin-1-yl]-4-oxo-1,4-dihydro-1,8-naphthyridine-3-carboxamide] | 0.048 µM | 99% | –
8 | O=C(NCC(F)(F)F)c1cn(-c2c(F)cc(F)cc2Cl)c2nc(N3C[C@@H](O)[C@H](O)C3)c(F)cc2c1=O [Example 221, 1-(2-Chloro-4,6-difluorophenyl)-7-[(3R,4R)-3,4-dihydroxypyrrolidin-1-yl]-6-fluoro-4-oxo-N-(2,2,2-trifluoroethyl)-1,4-dihydro-1,8-naphthyridine-3-carboxamide] | 0.031 µM | 85% | –
9 | C[C@@H](NC(=O)c1cn(-c2c(F)cc(F)cc2Cl)c2nc(N3C[C@@H](O)[C@H](O)C3)c(F)cc2c1=O)C(F)(F)F [Example 227, 1-(2-Chloro-4,6-difluorophenyl)-7-[(3R,4R)-3,4-dihydroxypyrrolidin-1-yl]-6-fluoro-4-oxo-N-[(2R)-1,1,1-trifluoropropan-2-yl]-1,4-dihydro-1,8-naphthyridine-3-carboxamide] | 0.011 µM | 94% | –
10 | C[C@H](O)CN(C)c1nc2c(cc1F)c(=O)c(C(=O)N[C@@H](C1CC1)C(F)(F)F)cn2-c1c(F)cc(F)cc1F [Example 64, N-[(1S)-1-Cyclopropyl-2,2,2-trifluoroethyl]-6-fluoro-7-{[(2S)-2-hydroxypropyl](methyl)amino}-4-oxo-1-(2,4,6-trifluorophenyl)-1,4-dihydro-1,8-naphthyridine-3-carboxamide] | 0.012 µM | 96% | –
11 | O=C(Nc1c(Cl)cccc1Cl)c1cn(-c2ccc(F)cc2F)c2ncc(Cl)cc2c1=O [Example 133, 6-Chloro-N-(2,6-dichlorophenyl)-1-(2,4-difluorophenyl)-4-oxo-1,4-dihydro-1,8-naphthyridine-3-carboxamide] | 1.6 µM | 81% | –
12 | O=C(NC(c1ccccc1Cl)C(F)(F)F)c1cn(-c2ccc(F)cc2F)c2ncc(Cl)cc2c1=O (racemic) [Example 134, 6-Chloro-N-[1-(2-chlorophenyl)-2,2,2-trifluoroethyl]-1-(2,4-difluorophenyl)-4-oxo-1,4-dihydro-1,8-naphthyridine-3-carboxamide] | 1.83 µM | 55% | –
13 | CCC(NC(=O)c1cn(-c2c(F)cc(F)cc2F)c2nc(N3C[C@@H](O)[C@H](O)C3)c(F)cc2c1=O)C(C)C (mixture of isomers) [Example 28, 7-[(3R,4R)-3,4-Dihydroxypyrrolidin-1-yl]-6-fluoro-N-(2-methylpentan-3-yl)-4-oxo-1-(2,4,6-trifluorophenyl)-1,4-dihydro-1,8-naphthyridine-3-carboxamide] | 0.00315 µM | 100% | –
14 | COC[C@H](NC(=O)c1cn(-c2c(F)cc(F)cc2F)c2nc(N3CC[C@H](O)C3)c(F)cc2c1=O)C(C)C [Example 121, 6-Fluoro-7-[(3S)-3-hydroxypyrrolidin-1-yl]-N-[(2R)-1-methoxy-3-methylbutan-2-yl]-4-oxo-1-(2,4,6-trifluorophenyl)-1,4-dihydro-1,8-naphthyridine-3-carboxamide] | 0.125 µM | 100% | –
15 | CCC(CC)(CC)NC(=O)c1cn(-c2c(F)cc(F)cc2F)c2nc(N3C[C@@H](O)[C@H](O)C3)c(F)cc2c1=O [Example 87, 7-[(3R,4R)-3,4-Dihydroxypyrrolidin-1-yl]-N-(3-ethylpentan-3-yl)-6-fluoro-4-oxo-1-(2,4,6-tri-fluorophenyl)-1,4-dihydro-1,8-naphthyridine-3-carboxamide] | 0.0014 µM | 100% | –
16 | CCC(NC(=O)c1cn(-c2c(F)cc(F)cc2F)c2nc(N3CC[C@H](O)C3)c(F)cc2c1=O)C(C)C (single isomer, unassigned) [Example 118] | 0.0028 µM | – | 100%
17 | CC[C@H](NC(=O)c1cn(-c2c(F)cccc2F)c2nc(N(C)CCO)c(F)cc2c1=O)C(F)(F)F [Example 4, 1-(2,6-Difluorophenyl)-6-fluoro-7-[(2-hydroxyethyl)(methyl)amino]-4-oxo-N-[(2S)-1,1,1-trifluorobutan-2-yl]-1,4-dihydro-1,8-naphthyridine-3-carboxamide] | 0.038 µM | 89% | –
18 | O=C(N[C@@H](C1CC1)C(F)(F)F)c1cn(-c2c(F)cc(F)cc2Cl)c2nc(N3C[C@@H](O)[C@H](O)C3)c(F)cc2c1=O (single isomer, unassigned) [Example 51] | 0.036 µM | 81% | –
